# Measured values reported in paper PMC12638379, “An innovative approach to development of new pyrazolylquinolin-2-one hybrids as dual EGFR and BRAF^V600E inhibitors” (Molecular Diversity, 2025).
# Where two headings read alike, the source gives them in different places.
# Test system: NCI 60 cancer cell lines
# Experiment: NCI anticancer screening over a panel of 60 cancer cells, single concentration 10 µM
# Format: cell-based, human
# Details: for inhibition at 10 µM: Homo sapiens, read-out: % Growth Inhibition (GI %)
# In short: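 Primary single-dose screen at 10 µM over the NCI panel of 60 human tumour cell lines (leukemia, CNS, lung, colon, kidney, ovary, breast, prostate). The standard NCI Developmental Therapeutics Program protocol was used.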
smiles,measurement,setting,value
"C/C(=N\Nc1ccc(S(N)(=O)=O)cc1)c1cnn(-c2cc(=O)[nH]c3ccc(Br)cc23)c1C [Compound 4e, (E)-4-(2-(1-(1-(6-bromo-2-oxo-1,2-dihydroquinolin-4-yl)-5-methyl-1H-pyrazol-4-yl)ethylidene)hydrazineyl)benzenesulfonamide]",activity in NCI screening (mean GI%),"10 µM, over the NCI cancer cell lines",remarkable activity over the most NCI cancer cell lines
same,inhibition at 10 µM,"786-0, Renal cancer 786-0, 10 μM",14.1%
same,inhibition at 10 µM,"A498, Renal cancer A498, 10 μM",< 5%
same,inhibition at 10 µM,"A549, Non-small cell lung cancer A549/ATCC, 10 μM",< 5%
same,inhibition at 10 µM,"ACHN, Renal cancer ACHN, 10 μM",19%
same,inhibition at 10 µM,"BT-549, Breast cancer BT-549, 10 μM",62.3%
same,inhibition at 10 µM,"CAKI-1, Renal cancer CAKI-1, 10 μM",23.3%
same,inhibition at 10 µM,"CCRF-CEM, Leukemia CCRF-CEM, 10 μM",91.8%
same,inhibition at 10 µM,"COLO 205, Colon cancer COLO 205, 10 μM",14.5%
same,inhibition at 10 µM,"DU-145, Prostate cancer DU-145, 10 μM",22.1%
same,inhibition at 10 µM,"EKVX, Non-small cell lung cancer EKVX, 10 μM",27.9%
same,inhibition at 10 µM,"HCC 2998, Colon cancer HCC-2998, 10 μM",26.6%
same,inhibition at 10 µM,"HCT-15, Colon cancer HCT-15, 10 μM",8.8%
same,inhibition at 10 µM,"HCT-116, Colon cancer HCT-116, 10 μM",41.5%
same,inhibition at 10 µM,"HL-60, Leukemia HL-60(TB), 10 μM",15.2%
same,inhibition at 10 µM,"HOP-62, Non-small cell lung cancer HOP-62, 10 μM",36.6%
same,inhibition at 10 µM,"HOP-92, Non-small cell lung cancer HOP-92, 10 μM",102%
same,inhibition at 10 µM,"HT-29, Colon cancer HT29, 10 μM",< 5%
same,inhibition at 10 µM,"Hs-578T, Breast cancer HS 578T, 10 μM",71.6%
same,inhibition at 10 µM,"IGROV-1, Ovarian cancer IGROV1, 10 μM",43%
same,inhibition at 10 µM,"K562, Leukemia K-562, 10 μM",65%
same,inhibition at 10 µM,"KM12, Colon cancer KM12, 10 μM",46.3%
same,inhibition at 10 µM,"LOX IMVI, Melanoma LOX IMVI, 10 μM",61.8%
same,inhibition at 10 µM,"Leukemia SR, 10 μM",95.9%
same,inhibition at 10 µM,"MCF7, Breast cancer MCF7, 10 μM",76.8%
same,inhibition at 10 µM,"MDA-MB-231, Breast cancer MDA-MB-231/ATCC, 10 μM",68.5%
same,inhibition at 10 µM,"MDA-MB-435, Melanoma MDA-MB-435, 10 μM",95.6%
same,inhibition at 10 µM,"MDA-MB-468, Breast cancer MDA-MB-468, 10 μM",111%
same,inhibition at 10 µM,"MOLT-4, Leukemia MOLT-4, 10 μM",81.5%
same,inhibition at 10 µM,"Melanoma M14, 10 μM",26.9%
same,inhibition at 10 µM,"Melanoma MALM-3M, 10 μM",78.3%
same,inhibition at 10 µM,"NCI-H23, Non-small cell lung cancer NCI-H23, 10 μM",30.1%
same,inhibition at 10 µM,"NCI-H226, Non-small cell lung cancer NCI-H226, 10 μM",37.7%
same,inhibition at 10 µM,"NCI-H322M, Non-small cell lung cancer NCI-H322M, 10 μM",22.3%
same,inhibition at 10 µM,"NCI-H460, Non-small cell lung cancer NCI-H460, 10 μM",22.1%
same,inhibition at 10 µM,"NCI-H522, Non-small cell lung cancer NCI-H522, 10 μM",94.9%
same,inhibition at 10 µM,"NCI/ADR-RES, Ovarian cancer NCI/ADR-RES, 10 μM",9.87%
same,inhibition at 10 µM,"OVCAR-3, Ovarian cancer OVCAR-3, 10 μM",43.8%
same,inhibition at 10 µM,"OVCAR-4, Ovarian cancer OVCAR-4, 10 μM",32.3%
same,inhibition at 10 µM,"OVCAR-5, Ovarian cancer OVCAR-5, 10 μM",18.6%
same,inhibition at 10 µM,"OVCAR-8, Ovarian cancer OVCAR-8, 10 μM",19.5%
same,inhibition at 10 µM,"Prostate cancer PC-3, 10 μM",41.6%
same,inhibition at 10 µM,"RPMI-8226, Leukemia RPMI-8226, 10 μM",25.7%
same,inhibition at 10 µM,"RXF 393, Renal cancer RXF 393, 10 μM",31.4%
same,inhibition at 10 µM,"SF-268, CNS Cancer SF-268, 10 μM",42.7%
same,inhibition at 10 µM,"SF-295, CNS Cancer SF-295, 10 μM",8.09%
same,inhibition at 10 µM,"SF-539, CNS Cancer SF-539, 10 μM",58.4%
same,inhibition at 10 µM,"SK-MEL-2, Melanoma SK-MEL-2, 10 μM",80%
same,inhibition at 10 µM,"SK-MEL-5, Melanoma SK-MEL-5, 10 μM",45%
same,inhibition at 10 µM,"SK-MEL-28, Melanoma SK-MEL-28, 10 μM",65.3%
